Experiment [1] addresses wild-type EPSPS from E. coli (Escherichia coli, UniProt P0A6D3). Particulars: read-out: apparent Km for PEP; cited from earlier work.
Experiment [2] has as its system Canola plants regenerated that contain the P178A mutant. Particulars: applied at commercial rates; canola with P178A EPSPS mutant. The source says: The following genoplast (recombinagenic oligonucleobase) was made to make a P178A change in Brassica napus (canola) germplasm:
wherein V is a fluorescent dye (V=Cy3) and H is a reverse nucleotide or reverse base (H=3′DMTdCCPG). The underlined nucelobases represent the heterologous region (codon) where the mutation occurs in the canola genome, ie, A. The genoplast is made according to well known techniques and the genoplast is preferably delivered into a canola plant cell via microparticle bombardment, ie, biolistics.

Experiment [3] concerns Rice plants regenerated that contain the P173A mutant. Particulars: applied at commercial rates; rice with P173A EPSPS mutant. The source says:
The following genoplast (recombinagenic oligonucleobase) was made to make a P173A change in Oryza sativa (rice) germplasm:
wherein V is a fluorescent dye (V=Cy3) and H is a reverse nucleotide or reverse base (H=3′DMTdCCPG). The underlined nucleobases represent the heterologous region (codon) where the mutation occurs in the rice genome, ie, A. The genoplast is made according to well known techniques and the genoplast is preferably delivered into a rice plant cell via microparticle bombardment, ie, biolistics.

The subject of experiment [4] is EPSPS mutations in E coli (Area) and Arabidopsis NM 130093. Particulars: mutations 1-9 of the table.
Text: To identify mutant EPSPS genes that will produce a gene product that provides resistance to glyphosate, in vitro screening can be done in a bacterial system to save time and resources. Growth curves of bacterial colonies expressing candidate mutant EPSPS genes can be generated to evaluate the mutant EPSPS genes in providing a glyphosate resistant phenotype. […] In another embodiment of the present invention, the E coli EPSPS gene, also called the AroA gene, can be used to evaluate EPSPS mutants for glyphosate resistance. Growth curve assays and enzymatic assays measuring Ki and Km values for candidate mutants are conducted according to well known assay techniques.

Chain of wild-type EPSPS from E. coli (P0A6D3 whole entry): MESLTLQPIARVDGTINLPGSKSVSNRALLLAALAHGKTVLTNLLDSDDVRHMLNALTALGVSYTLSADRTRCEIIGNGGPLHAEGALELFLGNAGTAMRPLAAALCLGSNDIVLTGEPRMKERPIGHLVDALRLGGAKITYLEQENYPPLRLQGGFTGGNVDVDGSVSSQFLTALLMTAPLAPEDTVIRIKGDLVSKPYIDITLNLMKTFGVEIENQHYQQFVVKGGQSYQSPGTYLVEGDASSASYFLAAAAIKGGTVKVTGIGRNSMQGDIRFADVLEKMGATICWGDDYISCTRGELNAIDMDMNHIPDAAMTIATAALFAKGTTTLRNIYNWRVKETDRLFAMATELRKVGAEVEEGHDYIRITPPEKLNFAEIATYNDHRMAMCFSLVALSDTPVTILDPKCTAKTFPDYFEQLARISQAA

A word on the Km: it is the concentration of substrate that gives half-maximal velocity. As for `C=C(OP(=O)(O)O)C(=O)O` [PEP, phosphoenolpyruvic acid], in experiment [1], the Km is 10 µM.
Take `O=C(O)CNCP(=O)(O)O` [glyphosate, N-phosphonomethylglycine]: the “resistance of plants to glyphosate” value in experiment [2] and in experiment [3] was “resistant” in each case. In experiment [4], the glyphosate resistant phenotype entry is “resistant”.
